What was measured:
morningglory [1] = assay: Test B pre-/postemergence herbicide test; type: in vivo, Ipomoea coccinea; conditions: for Morningglory plant response rating: postemergence, visual rating, scale 0 (no effect) to 100 (complete control)
Procedure, shortened: (§1)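 Response was scored visually 13 to 15 days after treatment against untreated greenhouse controls, 0 meaning no effect and 100 complete control. Formulations (solvent mixture plus surfactant) went onto soil after planting, onto foliage of 1- to 4-leaf plants, and onto 2-leaf plants in a flooded paddy set including rice and barnyardgrass.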

corn = assay: Test B pre-/postemergence herbicide test; type: in vivo, Zea mays; conditions: for Corn plant response rating: postemergence, visual rating, scale 0 (no effect) to 100 (complete control)
Procedure, shortened: (§2)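 Herbicidal effect was judged by eye on a 0–100 scale after plants stood 13 to 15 days in the greenhouse following pre- or postemergence treatment with surfactant-containing formulations.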

lambsquarters = assay: Test B pre-/postemergence herbicide test; type: in vivo, Chenopodium album; conditions: for Lambsquarters plant response rating: postemergence, visual rating, scale 0 (no effect) to 100 (complete control)
Procedure, shortened: as §2

pigweed = assay: Test B pre-/postemergence herbicide test; type: in vivo, Amaranthus retroflexus; conditions: for Pigweed plant response rating: postemergence, visual rating, scale 0 (no effect) to 100 (complete control)
Procedure, shortened: as §2

rice [2] = assay: Test B pre-/postemergence herbicide test; type: in vivo, Oryza sativa; conditions: preemergence
Procedure, shortened: as §2

morningglory [3] = assay: Test A pre-/postemergence herbicide test; type: in vivo, Ipomoea spp.
Procedure, shortened: (§3)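 Visual injury scores on a 0–100 scale (100 = complete control) taken about ten days post-treatment in greenhouse against untreated controls; dash means no result. Treatments: preemergence soil spray and postemergence spray to runoff on one- to two-leaf plants 2 to 10 cm tall, surfactant-containing formulation.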

cocklebur = assay: Test B pre-/postemergence herbicide test; type: in vivo, Xanthium strumarium; conditions: for Cocklebur plant response rating: postemergence, visual rating, scale 0 (no effect) to 100 (complete control)
Procedure, shortened: as §1

redroot pigweed = assay: Test A pre-/postemergence herbicide test; type: in vivo, Amaranthus retroflexus
Procedure, shortened: as §3

ducksalad = assay: Test B flooded paddy test; type: in vivo, Heteranthera limosa; conditions: 1000 g ai/ha, visual rating, scale 0 to 100 (0 no effect, 100 complete control), 13 to 15 days
Procedure, shortened: (§4)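 Visual control ratings, 0–100 versus untreated controls, taken after 13 to 15 days in the greenhouse. Blackgrass received a postemergence spray at the 1- to 4-leaf stage (2–18 cm); ducksalad, umbrella sedge and barnyardgrass were flooded-paddy treated at 2 leaves.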

wheat = assay: Test B postemergence herbicide test; type: in vivo, Triticum aestivum; design: key to Wheat plant response rating: 0 = no effect, 100 = complete control; conditions: postemergence, visual rating, scale 0 (no effect) to 100 (complete control)
Procedure, shortened: (§5)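 After treating 2-leaf paddy plants or 2–18 cm postemergence plants (1 to 4 leaves) with formulated chemical, researchers kept them in a greenhouse for 13–15 days. Effects were judged visually versus controls: 0 indicates none, 100 total control.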

barnyardgrass [4] = assay: Test B flooded paddy test; type: in vivo, Echinochloa crus-galli; conditions: 1000 g ai/ha, visual rating, scale 0 to 100 (0 no effect, 100 complete control), 13 to 15 days
Procedure, shortened: as §4

giant foxtail [5] = assay: Test A pre-/postemergence herbicide test; type: in vivo, Setaria faberi
Procedure, shortened: as §3

[6] = system: small flower umbrella sedge; assay: Test B flooded paddy test; type: in vivo, Cyperus difformis; conditions: 1000 g ai/ha, visual rating, scale 0 to 100 (0 no effect, 100 complete control), 13 to 15 days
Procedure, shortened: as §4

large crabgrass [7] = assay: Test B pre-/postemergence herbicide test; type: in vivo, Digitaria sanguinalis; conditions: for Crabgrass, Large plant response rating: postemergence, visual rating, scale 0 (no effect) to 100 (complete control)
Procedure, shortened: as §2

velvetleaf [8] = assay: Test A pre-/postemergence herbicide test; type: in vivo, Abutilon theophrasti
Procedure, shortened: as §3

blackgrass = assay: Test B postemergence herbicide test; type: in vivo, Alopecurus myosuroides; conditions: postemergence, visual rating, scale 0 (no effect) to 100 (complete control)
Procedure, shortened: as §4

barnyardgrass [9] = assay: Test A pre-/postemergence herbicide test; type: in vivo, Echinochloa crus-galli
Procedure, shortened: as §3

rice [10] = assay: Test B flooded paddy test; type: in vivo, Oryza sativa; conditions: 1000 g ai/ha, visual rating, scale 0 to 100 (0 no effect, 100 complete control), 13 to 15 days
Procedure, shortened: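 Treated at 2-leaf (paddy) or 1–4-leaf, 2–18 cm (postemergence); greenhouse 13–15 d; visual score vs control, 0 none to 100 complete control; dash = not tested.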

giant foxtail [11] = assay: Test B pre-/postemergence herbicide test; type: in vivo, Setaria faberi; conditions: for Foxtail, Giant plant response rating: postemergence, visual rating, scale 0 (no effect) to 100 (complete control)
Procedure, shortened: as §2

velvetleaf [12] = assay: Test B pre-/postemergence herbicide test; type: in vivo, Abutilon theophrasti; conditions: for Velvetleaf plant response rating: postemergence, visual rating, scale 0 (no effect) to 100 (complete control)
Procedure, shortened: as §2

wild oat = assay: Test B postemergence herbicide test; type: in vivo, Avena fatua; conditions: postemergence, visual rating, scale 0 (no effect) to 100 (complete control)
Procedure, shortened: as §5

barnyardgrass [13] = assay: Test B pre-/postemergence herbicide test; type: in vivo, Echinochloa crus-galli; conditions: for Barnyardgrass plant response rating: postemergence, visual rating, scale 0 (no effect) to 100 (complete control)
Procedure, shortened: as §1

Surinam grass = assay: Test B pre-/postemergence herbicide test; type: in vivo, Urochloa decumbens; conditions: for Surinam Grass plant response rating: postemergence, visual rating, scale 0 (no effect) to 100 (complete control)
Procedure, shortened: as §2

large crabgrass [14] = assay: Test A pre-/postemergence herbicide test; type: in vivo, Digitaria sanguinalis
Procedure, shortened: as §3

[15] = 125 g ai/ha, 0 = no effect, 100 = complete control, preemergence
[16] = 500 g ai/ha, visual rating 0-100, 0 no effect, 100 complete control, preemergence
[17] = Postemergence, 500 g ai/ha, 0 to 100 scale, 0 no effect, 100 complete control
[18] = Postemergence, 2000 g ai/ha, 0 to 100 scale, 0 no effect, 100 complete control
[19] = Preemergence, 2000 g ai/ha, visual rating, 0 to 100 scale (0 no effect, 100 complete control)
[20] = preemergence, 500 g ai/ha, visual injury, 0 to 100 scale (0 no effect, 100 complete control)

COC(=O)c1cccc(NC(=O)c2sc(C(C)(C)C)nc2C)c1 [Compound 197]
10: Corn plant response rating (corn; 125 g ai/ha) | Pigweed plant response rating (pigweed; 500 g ai/ha) | Cocklebur plant response rating (cocklebur; 500 g ai/ha) | Wheat plant response rating (wheat; 500 g ai/ha) | Velvetleaf plant response rating (velvetleaf [8]; [19]) | Barnyardgrass plant response rating (barnyardgrass [9]; [17]) | Oat, Wild plant response rating (wild oat; 125 g ai/ha) | Plant response rating, Barnyardgrass (barnyardgrass [13]; [16]) | Barnyardgrass plant response rating (barnyardgrass [13]; 500 g ai/ha) | Surinam Grass plant response rating (Surinam grass; 125 g ai/ha) | Plant response rating, Crabgrass, Large (large crabgrass [14]; [18])
5: Morningglory plant response rating (morningglory [3]; [19]) | Plant response rating, Pigweed (redroot pigweed; [18]) | Plant response rating, Foxtail, Giant (giant foxtail [5]; [18]) | Velvetleaf plant response rating (velvetleaf [8]; [17]) | Plant response rating, Velvetleaf (velvetleaf [8]; [18]) | Crabgrass, Large plant response rating (large crabgrass [14]; [17])
30: Oat, Wild plant response rating (wild oat; 500 g ai/ha)
0: Morningglory plant response rating (0 to 100 scale) (morningglory [1]; [15]) | Plant response rating, Morningglory (morningglory [1]; [16]) | Morningglory plant response rating (morningglory [1]; 125 g ai/ha) | Morningglory plant response rating (morningglory [1]; 500 g ai/ha) | Corn plant response rating (0 to 100 scale) (corn; [15]) | Plant response rating, Corn (corn; [16]) | Lambsquarters plant response rating (0 to 100 scale) (lambsquarters; [15]) | Plant response rating, Lambsquarters (lambsquarters; [16]) | Lambsquarters plant response rating (lambsquarters; 125 g ai/ha) | Lambsquarters plant response rating (lambsquarters; 500 g ai/ha) | Pigweed plant response rating (0 to 100 scale) (pigweed; [15]) | Plant response rating, Pigweed (pigweed; [16]) | Pigweed plant response rating (pigweed; 125 g ai/ha) | Rice plant response rating (0 to 100 scale) (rice [2]; 125 g ai/ha, 0 = no effect, 100 = complete control) | Plant response rating, Rice (rice [2]; 500 g ai/ha, visual rating 0-100, 0 no effect, 100 complete control) | Morningglory plant response rating (morningglory [3]; [17]) | Plant response rating, Morningglory (morningglory [3]; [18]) | Morningglory plant response rating (morningglory [3]; [20]) | Cocklebur plant response rating (0 to 100 scale) (cocklebur; [15]) | Plant response rating, Cocklebur (cocklebur; [16]) | Cocklebur plant response rating (cocklebur; 125 g ai/ha) | Pigweed plant response rating (redroot pigweed; [17]) | Pigweed plant response rating (redroot pigweed; [19]) | Pigweed plant response rating (redroot pigweed; [20]) | Ducksalad plant response rating (ducksalad) | Wheat plant response rating (wheat; 125 g ai/ha) | Barnyardgrass plant response rating (barnyardgrass [4]) | Foxtail, Giant plant response rating (giant foxtail [5]; [17]) | Foxtail, Giant plant response rating (giant foxtail [5]; [19]) | Foxtail, Giant plant response rating (giant foxtail [5]; [20]) | Sedge, Umbrella plant response rating [6] | Crabgrass, Large plant response rating (0 to 100 scale) (large crabgrass [7]; [15]) | Plant response rating, Crabgrass, Large (large crabgrass [7]; [16]) | Crabgrass, Large plant response rating (large crabgrass [7]; 125 g ai/ha) | Crabgrass, Large plant response rating (large crabgrass [7]; 500 g ai/ha) | Velvetleaf plant response rating (velvetleaf [8]; [20]) | Blackgrass plant response rating (blackgrass; 125 g ai/ha) | Blackgrass plant response rating (blackgrass; 500 g ai/ha) | Plant response rating, Barnyardgrass (barnyardgrass [9]; [18]) | Barnyardgrass plant response rating (barnyardgrass [9]; [19]) | Barnyardgrass plant response rating (barnyardgrass [9]; [20]) | Rice plant response rating (rice [10]) | Foxtail, Giant plant response rating (0 to 100 scale) (giant foxtail [11]; [15]) | Plant response rating, Foxtail, Giant (giant foxtail [11]; [16]) | Foxtail, Giant plant response rating (giant foxtail [11]; 125 g ai/ha) | Foxtail, Giant plant response rating (giant foxtail [11]; 500 g ai/ha) | Velvetleaf plant response rating (0 to 100 scale) (velvetleaf [12]; [15]) | Plant response rating, Velvetleaf (velvetleaf [12]; [16]) | Velvetleaf plant response rating (velvetleaf [12]; 125 g ai/ha) | Barnyardgrass plant response rating (0 to 100 scale) (barnyardgrass [13]; [15]) | Barnyardgrass plant response rating (barnyardgrass [13]; 125 g ai/ha) | Surinam Grass plant response rating (0 to 100 scale) (Surinam grass; [15]) | Crabgrass, Large plant response rating (large crabgrass [14]; [19]) | Crabgrass, Large plant response rating (large crabgrass [14]; [20])
20: Corn plant response rating (corn; 500 g ai/ha) | Velvetleaf plant response rating (velvetleaf [12]; 500 g ai/ha) | Plant response rating, Surinam Grass (Surinam grass; [16]) | Surinam Grass plant response rating (Surinam grass; 500 g ai/ha)
